# According to patent US20240287108A1, “nSMASE2 INHIBITOR PRODRUGS WITH ENHANCED ORAL AND BRAIN EXPOSURES” (The Johns Hopkins University, priority 2021, published 2024):
# Entries after “also recorded” stand apart in the source; their conditions may differ.
# Key:
# [1] = system: IL-1β-induced release of GFP+ EVs into plasma; experiment: EV release in vivo, IL-1β mouse model of acute brain injury; conditions: P18 3 and 10 mg/kg DPTIP equivalent PO 30 min before intrastriatal IL-1β; 4 h
# Description: We have previously reported that nSMase2 regulates the secretion of extracellular vesicles from astrocytes in response to a focal inflammatory brain lesion. Rojas et al., 2018. Striatal injection of IL-1β in mice expressing GFAP-EGFP in astroglia evokes the release of GFP-labelled EVs that rapidly enter into plasma and target multiple organ systems. Dickens et al., 2017. We used this mouse model to evaluate the ability of P18 to inhibit EV release by the inhibition of nSMase2 activity in vivo. […] Interleukin-1β-injected mice, orally pre-dosed with P18 (30 min prior) were euthanized 4-hours post-IL-1β injection. GFP labeled (GFP+) EVs were quantified in plasma and nSMase2 activity was measured in the brain striata.
# Striatal injections and EV measurements were performed as previously described by our group. Dickens et al., 2017; Mccluskey et al., 2008. […] Mice subjected to intrastriatal injection of IL-1β were also injected with the NSAID carprofen (rimadyl, 5 mg/kg. i.p.) and closely monitored during recovery; no adverse reactions were observed. […] Quantitation of Plasma EVs: Dynabeads M-450) Epoxy (Invitrogen) were coupled with anti-GFP antibody (Thermo Fisher) at a ratio of 200-μg antibody per 4×10^8 beads. […] The concentration of immunoprecipitated GFP+ EVs was quantified using ZetaView nanoparticle tracking analysis (Particle Metrix) and corresponding ZetaView software (8.05.14.SP7). […]
# [2] = in vitro stability in CES1−/− mouse plasma; format: in vitro ADME; conditions: CES1−/− mouse plasma, 10 μM, 37° C.
# Protocol: All synthesized prodrugs were next screened for in vitro stability in carboxylesterase 1 knockout (CES1^−/−) mouse plasma, as well as CES1^−/− mouse brain and liver homogenates (Table 2-1). We have previously reported that CES1^−/− mouse model recapitulates human prodrug metabolism. Tenora et al., 2019.
# Zimmermann et al., 2018. For the tissue homogenates, washed tissues were diluted 10-fold in 0.1 M potassium phosphate buffer and homogenized using a probe sonicator. To evaluate the stability of the intact prodrug over time, each of the crude homogenates and plasma were aliquoted to 1 mL and then spiked with a final assay concentration of 10 μM of each prodrug followed by incubation in an orbital shaker at 37° C. for 1 h (in triplicate). Sample from each incubation at predetermined time points (0 min, and 1 h) was quenched with three volumes of acetonitrile containing the internal standard (IS; losartan: 0.5 μm). Samples were vortex-mixed for 30 secs and centrifuged at 10,000×g for 10 min at 4° C. Disappearance of intact prodrugs from these samples were performed on a Dionex ultra-high-performance LC system coupled with Q Exactive Focus orbitrap mass spectrometer (Thermo Fisher Scientific Inc., Waltham MA). The separation of analytes was achieved using the Agilent Eclipse Plus column (100×2.1 mm i.d.; maintained at 35° C.) packed with a 1.8 μm C18 stationary phase. The mobile phase consisted of 0.1% formic acid in water and 0.1% formic acid in acetonitrile. Pumps were operated at a flow rate of 0.4 mL/min for 9 min using gradient elution. The mass spectrometer controlled by Xcalibur software 4.0.27.13 (Thermo Scientific) was operated with a heated electrospray ionization (HESI) ion source in positive ionization mode. Quantification of the prodrugs were performed in the full-scan mode (from m/z 50 to 1600) by comparing t=0 samples with t=60 min samples.
compound,measurement,setting,value
"CCC1CC(N2CCCCC2)CC(CC)N1C(=O)Oc1c(OC)cc(-c2nc(-c3ccccc3)c(-c3cccs3)[nH]2)cc1OC (centres unmarked) [Compound P18, 2,6-Dimethoxy-4-(5-phenyl-4-(thiophen-2-yl)-1H-imidazol-2-yl)phenyl 2′,6′-diethyl-[1,4′-bipiperidine]-1′-carboxylate]",IL-1β-induced release of GFP+ EVs into plasma,[1],significantly inhibited IL-1β-induced EV release into plasma; also recorded: inhibited the release of brain derived GFP+ EVs into blood at both 3 and 10 mg/kg; also recorded: significant inhibition
same,"Stability in mouse (% remaining at 1h) Mean + Std Error, Plasma",[2],92 ± 7%
